Results from patent US8252788B2, “Therapeutic compounds” (Allergan, Inc., priority 2008, dated 2012).

Columns and labels:
normotensive dogs = assay: In vivo intraocular pressure (IOP) test in normotensive dogs
Protocol: Title compounds H145 and H146 from above are tested in vivo to test its ability to reduce intraocular pressure. Compound H145 is tested in normotensive dogs.

[1] = test system: laser-induced hypertensive monkeys; assay: In vivo intraocular pressure (IOP) test in laser-induced hypertensive monkeys
[2] = test system: lashes and adjacent hairs; assay: Observation of lashes and adjacent hairs in glaucoma patients treated with bimatoprost in one eye; assay type: in vivo
Excerpt: In the course of treating patients having glaucoma, treatment may only be appropriate in one eye. […] The lash appearance on the lids of the treated eyes would have appeared quite attractive if it represented a bilateral phenomenon. As a result of its asymmetric nature, the long lashes on one side could be construed as disturbing from a cosmetic standpoint. A systemic examination was preformed as a result of the asymmetric phenomenon. It soon became apparent that this altered appearance was not an isolated finding. […] Definite differences could be identified to varying degrees in the lashes and adjacent hairs of all patients who were taking the drug on a unilateral basis for longer than 6 months.
The changes in the lashes were apparent on gross inspection in several patients once attention was focused on the issue. In those with light colored hair and lashes, the differences were only seen easily with the aid of the high magnification and lighting capabilities of the slit lamp biomicroscope. In the course of glaucoma follow-up examination, attention is generally immediately focused on the eye itself. As a result of the high power magnification needed only one eye is seen at a time and the eye is seen at a high enough power that the lashes are not in focus. […]

SMILES | intraocular pressure (IOP) versus baseline (normotensive dogs) | IOP versus baseline [1] | lash appearance in treated eye versus non-treated eye ([2]; glaucoma patient treated in one eye) | hair growth in treated versus control areas ([2]; multiple parameters of hair appearance, many subjects)
O=C(OCCO)c1ccc(CCC[C@@H]2[C@@H](CSc3cc(Cl)cc(Cl)c3)[C@H](O)C[C@H]2Cl)s1 [Compound H145] | decreases from baseline | decreases from baseline | – | –
O=C(OCCN1CCOCC1)c1ccc(CCC[C@@H]2[C@@H](CSc3cc(Cl)cc(Cl)c3)[C@H](O)C[C@H]2Cl)s1 [Compound H146] | decreases from baseline | decreases from baseline | – | –
O=C(OCCO)c1ccc(CCC[C@@H]2[C@@H](CNc3cc(Cl)cc(Cl)c3)[C@H](O)C[C@H]2Cl)s1 [Compound H147] | decreases from baseline | decreases from baseline | – | –
O=C(OCCN1CCOCC1)c1ccc(CCC[C@@H]2[C@@H](CNc3cc(Cl)cc(Cl)c3)[C@H](O)C[C@H]2Cl)s1 [Compound H148] | decreases from baseline | decreases from baseline | – | –
CCNC(=O)CCC/C=C\C[C@@H]1[C@@H](/C=C/[C@@H](O)CCc2ccccc2)[C@H](O)C[C@@H]1O [bimatoprost] | – | – | longer, thicker, and fuller | stimulated
